{"source": "patent US20170045513A1", "about": "“METHODS OF DIAGNOSING CELIAC DISEASE USING IP-10” (ImmusanT, Inc., priority 2014, published 2017)", "format_in_all_cases": "cell-based, human", "key": {"gluten-reactive T cells [1]": {"tested_on": "gluten-reactive T cells", "test": "96-well plate whole blood cytokine release, IFNγ by MAGPIX multiplex bead assay", "conditions": "for Percent of maximal response to individual gluten peptides, IFNg: after oral gluten challenge"}, "gluten-reactive T cells [2]": {"tested_on": "gluten-reactive T cells", "test": "96-well plate whole blood cytokine release, IP-10 by MAGPIX multiplex bead assay", "conditions": "for Percent of maximal response to individual gluten peptides, IP-10: after oral gluten challenge"}, "gluten-reactive T cells [3]": {"tested_on": "gluten-reactive T cells", "test": "Overnight IFNγ ELISpot assay with fresh PBMC", "conditions": "for Percent of maximal response to individual gluten peptides, ELISp: after oral gluten challenge", "procedure": "HLA-DQ2.5-positive celiac disease subjects on gluten-free diet were used in this study. Blood was collected immediately before and 6 days after commencing 3-day oral gluten challenge. Whole blood or PBMCs were incubated with pools or single peptides derived from gluten or recall antigens. IFNγ and IP-10 levels were measured in plasma from the whole blood that was incubated in 96-well plates with peptides or peptide pools. Plasma cytokine/chemokine levels were measured by MAGPIX® multiplex bead assay (IFNγ and IP-10) or by ELISA (IFNγ and IP-10), and PBMC separated from the same blood sample were incubated in overnight IFNγ ELISpot assays.\nOvernight IFNγ ELISpot assays (Human IFN-γ ELISpotPRO kit, transparent, ALP; Mabtech AB, #3420-2APT-10) were performed using PBMC freshly separated from heparinized blood diluted 1:1 in PBS with 2% fetal bovine serum (Stemcell Technologies #07905; Vancouver, BC, V5Z 1B3, Canada) overlaid on density gradient medium (Ficoll-Paque™ PLUS; GE Healthcare Lice Sciences #:17-1440-02) in SepMate™-50 tubes (Stemcell Technologies #15460). PBMC (8 million/mL) were resuspended in serum-free medium with gentamicin and phenol red (X-VIVO™15; Lonza, Walkersville Mass. 21793). PBMC (0.4 million/50 pt/well) and incubated with 50 μL 80% X-vivo15, 0.2% DMSO and 20% PBS in three triplicate wells (“medium only”), or with 50 μL PHA-L 20 μg/ml or peptide at 2× final concentration in 80% X-vivo15, 0.2% DMSO and 20% PBS. Peptide solutions to be added to individual ELISpot wells were prepared in 96-well U-bottom plates (60 pt/well) that were then sealed with adhesive ELISA plate cover slips before replacing the plastic lid and being frozen at −80° C. 96-well plates containing peptide solutions were thawed at room temperature for 10 min while being centrifuged at 300 g immediately prior to being added to ELISpot wells. Peptide pools and mitogen were assessed in triplicate wells, and individual peptides were assessed in duplicate wells. X-VIVO™15 (50 μL) was incubated with 80% X-vivo15, 0.2% DMSO and 20% PBS (50 μL) in triplicate wells (“no PBMC” control). A Zeiss automated ELISpot counter was used to determine spot forming units (SFU) per well (Zellnet Inc., Fort Lee, N J 07024). Laboratory staff were unaware of the arrangement of peptide solutions in ELISpot wells during assay setup and plate counting."}, "gluten-reactive T cells [4]": {"tested_on": "gluten-reactive T cells", "test": "Cytokine release assays taken together (IFNγ ELISpot, whole blood IFNγ and IP-10, in-tube IFNγ ELISA)", "conditions": "HLA-DQ2.5+ celiac disease subjects after gluten challenge", "procedure": "Gluten peptide solutions for addition to whole blood were arranged according to standardized templates in sterile 96-well U-bottom plates (30 μL/well). Plates were sealed with adhesive ELISA plate cover slips before the plastic lid was replaced and being frozen at −80° C. Whole blood assay (WBA) “medium” (1% DMSO in 90% PBS and 9% normal saline), mitogen (PHA-L, Sigma-Aldrich #L2769; St Louis Mo.) 100 μg/ml in WBA medium, and CEF diluted to 10 μg/ml in PBS with a final concentration of 1% DMSO were frozen separately in sterile cryovials. 96-well plates and cryovials with frozen incubation solutions were shipped on dry ice to the clinical site where blood was collected and incubations performed. Solutions were thawed at room temperature for 10 min just before being added to whole blood. 96-well plates were thawed while being centrifuged at 300 g to avoid surface condensation. A multi-channel pipette was used to efficiently transfer 25 μL of peptide solutions from the original 96-well plate to corresponding wells in a fresh sterile 96-well U-bottom plate. Once incubation solutions had been added, 225 μL of whole blood was added to each well and the plate transferred to incubate for 24 h at 37° C. 5% CO2. […] Individual peptides were incubated at a final assay concentration of 51.1M. Final concentrations of individual peptides assessed in P3 was 0.05-50 μg/mL, and in P14 and P13 pools 0.025-25 μM. The P71 pool was tested at between 0.005-10 pg/mL, the highest tested concentration being the maximal possible not exceeding 0.1% DMSO. Peptide pools, mitogen, and medium only were assessed in triplicate wells, and on Day-6 individual peptides were assessed in duplicate wells. Incubations were terminated after 24 h, and 96-well plates centrifuged at 300 g for 10 min. A total of approximately 90 to 120 μL of plasma was removed from each well taking care to avoid red cell contamination, and transferred into corresponding wells of two further 96-well plates (one with 30 μL/well and the residual in the second plate). Plasmas were frozen at −80° C. and later shipped on dry ice to the central lab where IP-10 and IFNγ multiplex bead assays were performed according to manufacturer's instructions using 25 μL plasma per well (Milliplex® MAP Human Cytokine/Chemokine Magnetic Bead Panel #HCYTOMAG-60k-02; EMD Millipore Corp., Billerica, Mass. 01821) and analysed with the Luminex® MAGPIX® System xPONENT® software (Luminex Corporation, Austin Tex. 78727). Plasma cytokine levels for each assay condition were expressed as the mean analyte concentration of each of the three replicate incubations. Laboratory staff were unaware of the arrangement of peptide solutions incubated with during assay setup and plate counting.\nAliquots of PBS, P3 peptides diluted in PBS (final concentration in blood 3× 50 or CEF to a final concentration 1 μg/mL were prepared in sterile cryovials (0.11 mL/vial) and stored frozen (−80° C.) until immediately before use. P3, CEF and two PBS aliquots were drawn up in separate sterile 0.3 mL insulin syringes with attached 29G×½″ needle (Terumo, SS*30M2913; Elkton Md. 21921). P3, CEF and one PBS aliquot was injected through the stoppers of three separate QuantiFERON® NIL tubes already containing 1 mL blood, and one aliquot of PBS was injected into a QuantiFERON® MITOGEN tube already containing 1 mL blood. All four tubes containing blood and incubation solution were gently inverted ten-times and transferred to incubate at 37° C. 5% CO2. After for 24 h, tubes were centrifuged 300 g 10 min. Plasma was separated and equal volumes placed in two 1.5 mL cryovials. Frozen plasmas were transferred to the central lab where IFNγ levels were measured in triplicate 50 μL samples by ELISA (MABtech Human IFN-γ ELISA development kit HRP, 3420-1H-6; capture mAb 1-D1K). […]"}}, "note": "Non-standard residues stand in square brackets, D forms with d. pGlu = O=C1CC[C@@H](C(=O)O)N1"}
{"substance": "(pE)QPFPEQPEQIIPQQP-amide ([pGlu]QPFPEQPEQIIPQQP-NH2; SMILES CC[C@H](C)[C@H](NC(=O)[C@H](CCC(N)=O)NC(=O)[C@H](CCC(=O)O)NC(=O)[C@@H]1CCCN1C(=O)[C@H](CCC(N)=O)NC(=O)[C@H](CCC(=O)O)NC(=O)[C@@H]1CCCN1C(=O)[C@H](Cc1ccccc1)NC(=O)[C@@H]1CCCN1C(=O)[C@H](CCC(N)=O)NC(=O)[C@@H]1CCC(=O)N1)C(=O)N[C@H](C(=O)N1CCC[C@H]1C(=O)N[C@@H](CCC(N)=O)C(=O)N[C@@H](CCC(N)=O)C(=O)N1CCC[C@H]1C(N)=O)[C@@H](C)CC) [Peptide 12]", "values": [{"measurement": "Percent of maximal response to individual gluten peptides, IFNg", "setting": "gluten-reactive T cells [1]; Subject 2, Max. 116 pg/mL", "result": "13 % of max"}, {"measurement": "Percent of maximal response to individual gluten peptides, IFNg", "setting": "gluten-reactive T cells [1]; Subject 3, Max. 799 pg/mL", "result": "0 % of max"}, {"measurement": "Percent of maximal response to individual gluten peptides, IFNg", "setting": "gluten-reactive T cells [1]; Subject 4, Max. 136 pg/mL", "result": "0 % of max"}, {"measurement": "Percent of maximal response to individual gluten peptides, IFNg", "setting": "gluten-reactive T cells [1]; Subject 6, Max. 72 pg/mL", "result": "0 % of max"}, {"measurement": "Percent of maximal response to individual gluten peptides, IFNg", "setting": "gluten-reactive T cells [1]; Subject 7, Max. 17 pg/mL", "result": "0 % of max"}, {"measurement": "Percent of maximal response to individual gluten peptides, IFNg", "setting": "gluten-reactive T cells [1]; Subject 8, Max. 47 pg/mL", "result": "0 % of max"}, {"measurement": "Percent of maximal response to individual gluten peptides, IFNg", "setting": "gluten-reactive T cells [1]; Subject 9, Max. 67 pg/mL", "result": "0 % of max"}, {"measurement": "Percent of maximal response to individual gluten peptides, IFNg", "setting": "gluten-reactive T cells [1]; Subject 10, Max. 229 pg/mL", "result": "1 % of max"}, {"measurement": "IFNγ WB MAGPIX % max Mean", "setting": "gluten-reactive T cells [1]; n = 8, blood after oral gluten challenge, individual peptides 5 μM (Peptide 2* of P14, Pepscan: 10 μg/mL (5.45 μM))", "result": 2, "unit": "% max"}, {"measurement": "Percent of maximal response to individual gluten peptides, IP-10", "setting": "gluten-reactive T cells [2]; Subject 1, Max. 2331 pg/mL", "result": "11 % of max"}, {"measurement": "Percent of maximal response to individual gluten peptides, IP-10", "setting": "gluten-reactive T cells [2]; Subject 2, Max. 3646 pg/mL", "result": "3 % of max"}, {"measurement": "Percent of maximal response to individual gluten peptides, IP-10", "setting": "gluten-reactive T cells [2]; Subject 3, Max. 9492 pg/mL", "result": "9 % of max"}, {"measurement": "Percent of maximal response to individual gluten peptides, IP-10", "setting": "gluten-reactive T cells [2]; Subject 4, Max. 9463 pg/mL", "result": "5 % of max"}, {"measurement": "Percent of maximal response to individual gluten peptides, IP-10", "setting": "gluten-reactive T cells [2]; Subject 5, Max. 9336 pg/mL", "result": "4 % of max"}, {"measurement": "Percent of maximal response to individual gluten peptides, IP-10", "setting": "gluten-reactive T cells [2]; Subject 6, Max. 5863 pg/mL", "result": "0 % of max"}, {"measurement": "Percent of maximal response to individual gluten peptides, IP-10", "setting": "gluten-reactive T cells [2]; Subject 7, Max. 2330 pg/mL", "result": "0 % of max"}, {"measurement": "Percent of maximal response to individual gluten peptides, IP-10", "setting": "gluten-reactive T cells [2]; Subject 8, Max. 4019 pg/mL", "result": "0 % of max"}, {"measurement": "Percent of maximal response to individual gluten peptides, IP-10", "setting": "gluten-reactive T cells [2]; Subject 9, Max. 8349 pg/mL", "result": "1 % of max"}, {"measurement": "Percent of maximal response to individual gluten peptides, IP-10", "setting": "gluten-reactive T cells [2]; Subject 10, Max. 8922 pg/mL", "result": "0 % of max"}, {"measurement": "IP-10 WB MAGPIX % max Mean", "setting": "gluten-reactive T cells [2]; n = 10, blood after oral gluten challenge, individual peptides 5 μM (Peptide 2* of P14, Pepscan: 10 μg/mL (5.45 μM))", "result": 3, "unit": "% max"}, {"measurement": "Percent of maximal response to individual gluten peptides, ELISp", "setting": "gluten-reactive T cells [3]; Subject 3, Max. 18 SFU", "result": "6 % of max"}, {"measurement": "Percent of maximal response to individual gluten peptides, ELISp", "setting": "gluten-reactive T cells [3]; Subject 4, Max. 36 SFU", "result": "0 % of max"}, {"measurement": "Percent of maximal response to individual gluten peptides, ELISp", "setting": "gluten-reactive T cells [3]; Subject 8, Max. 17 SFU", "result": "6 % of max"}, {"measurement": "Percent of maximal response to individual gluten peptides, ELISp", "setting": "gluten-reactive T cells [3]; Subject 10, Max. 11 SFU", "result": "0 % of max"}, {"measurement": "IFNγ ELISpot % max Mean", "setting": "gluten-reactive T cells [3]; n = 5, blood after oral gluten challenge, individual peptides 5 μM (Peptide 2* of P14, Pepscan: 10 μg/mL (5.45 μM))", "result": 3, "unit": "% max"}, {"measurement": "cytokine release / immunogenicity of individual peptide", "setting": "gluten-reactive T cells [4]", "result": "weak or absent"}]}
